Among the data in patent publication US20060100259A1, “Process for the preparation of substituted triazole compounds” (priority 2004, published 2006) are melting point values, retold here.

Molecules are shown by their SMILES.

For the compound `Nc1nc(Nc2ccc(S(N)(=O)=O)cc2)nn1C(=O)c1ccccc1Cl` [Compound #2, N^3-[(4-aminosulfonyl)phenyl]-1-(2′-chlorobenzoyl)-1H-1,2,4-triazole-3,5-diamine], the melting point lay in the range of 237 to 242.5 °C.

`COc1ccccc1C(=O)n1nc(Nc2ccc(S(N)(=O)=O)cc2)nc1N` [Compound #3, N^3-[(4-aminosulfonyl)phenyl]-1-(2′-methoxybenzoyl)-1H-1,2,4-triazole-3 5-diamine] had a melting point of 217 to 221.5 °C.

Consider `Nc1nc(Nc2ccc(S(N)(=O)=O)cc2)nn1C(=O)c1ccccc1Br` [Compound #4, N^3-[(4-aminosulfonyl)phenyl]-1-(2′-bromobenzoyl)-1H-1,2,4-triazole-3,5-diamine], for which the melting point lay in the range of 246 to 248 °C.

For the compound `Nc1nc(Nc2ccc(S(N)(=O)=O)cc2)nn1C(=O)c1cccc([N+](=O)[O-])c1` [Compound #5, N^3-[(4-aminosulfonyl)phenyl]-1-(3′-nitrobenzoyl)-1H-1,2,4-triazole-3,5-diamine], the melting point is 260 to 262 °C.

The compound `Nc1nc(Nc2ccc(S(N)(=O)=O)cc2)nn1C(=O)c1cccc(C(F)(F)F)c1` [Compound #6, N^3-[(4-aminosulfonyl)phenyl]-1-[3′-(trifluoromethyl)benzoyl]-1H-1,2,4-triazole-3,5-diamine] gave a melting point of 251 to 253 °C.

`Nc1nc(Nc2ccc(S(N)(=O)=O)cc2)nn1C(=O)c1cccc(Br)c1` [Compound #7, N^3-[(4-aminosulfonyl)phenyl]-1-(3′-bromobenzoyl)-1H-1,2,4-triazole-3,5-diamine] displayed a melting point of 242 to 244 °C.

Compound `Nc1nc(Nc2ccc(S(N)(=O)=O)cc2)nn1C(=O)c1ccc([N+](=O)[O-])cc1` [Compound #9, N^3-[(4-aminosulfonyl)phenyl]-1-(4′-nitrobenzoyl)-1H-1,2,4-triazole-3,5-diamine] had a melting point of 336 to 338 °C.

`Nc1nc(Nc2ccc(S(N)(=O)=O)cc2)nn1C(=O)c1ccc(O)cc1` [Compound #10, N^3-[(4-aminosulfonyl)phenyl]-1-(4′-hydroxybenzoyl)-1H-1,2,4-triazole-3,5-diamine] showed a melting point of more than 300 °C.

In the case of `COc1ccc(C(=O)n2nc(Nc3ccc(S(N)(=O)=O)cc3)nc2N)cc1` [Compound #12, N^3-[(4-aminosulfonyl)phenyl]-1-(4′-methoxybenzoyl)-1H-1,2,4-triazole-3,5-diamine], the melting point was in the range of 244.5 to 247.5 °C.

The compound `CC(=O)n1nc(Nc2ccc(S(N)(=O)=O)cc2)nc1N` [Compound #16, N^3-[(4-aminosulfonyl)phenyl]-1-acetyl-1H-1,2,4-triazole-3,5-diamine] displayed a melting point of 334 to 336 °C.

For `Nc1nc(Nc2ccc(S(N)(=O)=O)cc2)nn1C(=O)c1ccco1` [Compound #17, N^3-[(4-aminosulfonyl)phenyl]-1-(2′-furoyl)-1H-1,2,4-triazole-3,5-diamine], the melting point is more than 300 °C.

For `Cc1ccc(C(=O)n2nc(Nc3ccccc3)nc2N)cc1` [Compound #25, N^3-phenyl-1-(4′-methylbenzoyl)-1,2,4-triazole-3,5-diamine], the melting point fell in the range of 222.5 to 224 °C.

Take `Nc1nc(Nc2ccc(S(N)(=O)=O)cc2)nn1C(=O)c1ccc(Cl)cc1` [Compound #28, N^3-[(4-aminosulfonyl)phenyl]-1-(4′-chlorobenzoyl)-1H-1,2,4-triazole-3,5-diamine]: the melting point is more than 260 °C.

For `COc1ccccc1C(=O)n1nc(Nc2ccccc2)nc1N` [Compound #29, N^3-phenyl-1-(2′methoxybenzoyl)-1,2,4-triazole-3,5-diamine], the melting point lay in the range of 89.5 to 94 °C.

`COc1cccc(C(=O)n2nc(Nc3ccccc3)nc2N)c1` [Compound #30, N^3-phenyl-1-(3′-methoxybenzoyl)-1,2,4-triazole-3,5-diamine]: the melting point lay in the range of 174 to 184 °C.

For `Nc1nc(Nc2ccccc2)nn1C(=O)c1ccco1` [Compound #31, N^3-phenyl-1-(2-furoyl)-1,2,4-triazole-3,5-diamine], the melting point was in the range of 201 to 202 °C.
